Consider 4 molecules from patent EP0607373B1, “TRISUBSTITUTED PHENYL DERIVATIVES AS SELECTIVE PHOSPHODIESTERASE IV INHIBITORS” (CELLTECH THERAPEUTICS LIMITED, priority 1992, dated 1993).

Data set [1] deals with Right atrial and papillary muscles. Particulars: reference inhibitors, general statement on these preparations; cited from earlier work.
The test system of data set [2] is PDE IV, HL60 cells. The experiment in a line: Isolated enzyme phosphodiesterase assay, PDE IV. The class given is biochemical. Particulars: 0.1µM [3H]-cAMP, 30°C, pH 7.5, read-out: approximate Ki values (Ki PDE IV HL60 at (1µM)). The method, then:
The potency and selectivity of the compounds of the invention was determined using a battery of distinct PDE isoenzymes as follows: • i. PDE I, rabbit heart • ii. PDE II, rabbit heart • iii. PDE III, rabbit heart • iv. PDE IV, HL60 cells.
The enzymes were purified to kinetic homogeneity using standard chromatographic techniques.
Phosphodiesterase activity was assayed as follows. The reaction was conducted in 150µl of standard mixture containing (final concentrations): 50mM TES-NaOH buffer (pH 7.5), 10mM MgCl2, 0.1µM [^3H]-cAMP and vehicle or various concentrations of the test compounds. The reaction was initiated by addition of enzyme and conducted at 30°C for between 5 to 30 mins. The reaction was terminated by addition of 50µl 2% trifluoroacetic acid containing [^14C]-5'AMP for determining recovery of the product. An aliquot of the sample was then applied to a column of neutral alumina and the [^3H]-cAMP eluted with 10ml 0.1 TES-NaOH buffer (pH8). The [^3H]-5'-AMP product was eluted with 2ml 2M NaOH into a scintillation vial containing 10ml of scintillation cocktail. Recovery of [^3H]-5'AMP was determined using the [^14C]-5'AMP and all assays were conducted in the linear range of the reaction.

In the case of `COc1ccc(C2CNC(=O)C2)cc1OC1CCCC1` (stereo not shown) [rolipram], the “direct effects on isolated cardiac muscle (chronotropic, inotropic)” value in data set [1] is listed as “do not have any direct effects”.
On to `COc1ccc(NC(=O)c2ccccc2)cc1OC1CCCC1` [Example 1, N-Benzoyl-3-cyclopentyloxy-4-methyloxyaniline], for which the Ki (as a rule, the equilibrium dissociation constant of an inhibitor or competing ligand from its target) in data set [2] is about 391 nM.
As to `Cc1[nH]c(=O)c(C#N)cc1-c1ccncc1` [milrinone], in data set [1], the “direct effects on isolated cardiac muscle (chronotropic, inotropic)” value is “positive chronotropic and inotropic effects”.
With `COc1ccc(NC(=O)c2ccccc2[N+](=O)[O-])cc1OC1CCCC1` [Example 3, 3-Cyclopentyloxy-4-methyloxy-N-(2-Nitrobenzoyl)aniline], in data set [2], the Ki is about 179 nM.
